The results in this text go back to article PMC7177849, “Gut Microbial Catabolites of Tryptophan Are Ligands and Agonists of the Aryl Hydrocarbon Receptor: A Detailed Characterization” (International Journal of Molecular Sciences, 2020).

The target in data set [1] is T1, AhR-ARNT heterodimer (Homo sapiens, UniProt P35869).
T1 construct: 0.1% V/V) for 90 min at 37 °C; host or cells: LS180 cells
In words: Protein co-immunoprecipitation, formation of AhR-ARNT heterodimer in LS180 cells. The following applies: 90 min. The data set is classed as cell-based. As to the method: Figure 6 MICTs induce a formation of the AhR-ARNT heterodimer. Intestinal LS180 cells were incubated with TCDD, tested MICT, and vehicle (DMSO; 0.1% V/V) for 90 min. Protein co-immunoprecipitation of ARNT was carried out, as described in the Methods section. The representative immunoblots of immuno-precipitated protein eluates and total cell lysates are shown. The experiments were performed in two consecutive cell passages.
Intestinal LS180 cells were incubated with TCDD, tested MICT, and vehicle (DMSO; 0.1% V/V) for 90 min at 37 °C. The Pierce™ Co-Immunoprecipitation Kit (Thermo Fisher Scientific) with covalently coupled AhR antibody (mouse monoclonal, sc-133088, A-3, Santa Cruz Biotechnology) was used. Eluted protein complexes and total parental lysates were resolved on SDS-PAGE gels followed by Western Blot analysis and immuno-detection with ARNT-1 antibody (mouse monoclonal, sc-17812, G-3, Santa Cruz Biotechnology). Chemiluminescent detection was performed using horseradish peroxidase-conjugated anti-mouse secondary antibody (7076S, Cell Signaling Technology) and WesternSure® PREMIUM Chemiluminescent Substrate (LI-COR Biotechnology) by C-DiGit® Blot Scanner (LI-COR Biotechnology).

The subject of data set [2] is CYP1A1 mRNA. In words: CYP1A1 mRNA (qRT-PCR) in intestinal LS180 cells. The data set is classed as cell-based, human. As to the method:
(§1) Figure 4 Effects of MICT on the induction of CYP1A1 mRNA in human hepatic and intestinal cells. Cultured cells were incubated for 24 h with the vehicle (DMSO; 0.1% v/v) and tested MICT in the presence or absence of TCDD (10 nM). RT-PCR determined the level of CYP1A1 mRNA, and the data were normalized per GAPDH mRNA level. […] (A,B) Experiments in three consecutive passages of human colon adenocarcinoma cell line LS180 in the absence (A) and the presence (B) of 10 nM TCDD. The bar graphs show the percentage of maximal induction attained by TCDD and are expressed as the mean ± SD. (C) Experiments in three consecutive passages of wild-type (AhR^+/^+) and AhR-knockout (AhR^−/^−) HT-29 cells. […] (D) Primary human hepatocytes from three different donors (LH79, Hep2201020, and Hep2201021).
(§2) Total RNA was isolated using TRI Reagent® (Sigma Aldrich, Prague, Czech Republic). cDNA was synthesized using M-MuLV reverse transcriptase (New England Biolabs, Ipswich, MA, USA). The reverse transcription was performed at 42 °C for 60 min using Random Primers 6 (New England Biolabs, Ipswich, MA, USA) and diluted in a 1:4 ratio by PCR-grade water. The quantitative reverse transcriptase-polymerase chain reaction (qRT-PCR) was performed on the Lightcycler 480 II using the LightCycler ® 480 Probes Master (Roche Diagnostic Corporation, Prague, Czech Republic). The levels of CYP1A1 and GAPDH mRNAs were determined using the Universal Probe Library probes (UPL; Roche Diagnostic Corporation, Prague, Czech Republic) in combination with specific primers, using a protocol described elsewhere. All measurements were performed in triplicates, and the gene expression was normalized to glyceraldehyde-3-phosphate dehydrogenase (GAPDH) as a house-keeping gene. The data were processed using the delta-delta Ct method and expressed as a fold induction over the negative control (DMSO) or as a percentage of the positive control (maximal induction by TCDD).

The test system of data set [3] is CYP1A1 mRNA. Kind of data set: CYP1A1 mRNA (qRT-PCR) in primary human hepatocytes. The format is cell-based. The following applies: three donors, 24 h. As to the method: as §1
Primary human hepatocyte cultures were from two sources: (i) long-term human hepatocytes in monolayer batch Hep2201020 (person) and Hep2201021 (person) were purchased from Biopredic International (Rennes, France); (ii) primary human hepatocytes from multiorgan donor LH79 were prepared at Palacky University Olomouc. Liver tissue was obtained from Faculty Hospital Olomouc, and the tissue acquisition protocol followed the requirements issued by the “Ethical Committee of the Faculty Hospital Olomouc, Czech Republic” and Transplantation law #285/2002 Coll.
as §2

The test system of data set [4] is CYP1A1 mRNA. In words: Summary of CYP1A1 gene expression in human hepatic and intestinal cells. The format is cell-based. The conditions noted are these: Table 1 summary class; CYP1A1. As for the experimental part: as §1, §2
Where [5] appears, read: LS180 cells co-incubated with TCDD (10 nM), 24 h.

Structures are written as SMILES. Like-named read-outs stand apart in the source and are kept apart here.

T1 sequence (P35869 11-848): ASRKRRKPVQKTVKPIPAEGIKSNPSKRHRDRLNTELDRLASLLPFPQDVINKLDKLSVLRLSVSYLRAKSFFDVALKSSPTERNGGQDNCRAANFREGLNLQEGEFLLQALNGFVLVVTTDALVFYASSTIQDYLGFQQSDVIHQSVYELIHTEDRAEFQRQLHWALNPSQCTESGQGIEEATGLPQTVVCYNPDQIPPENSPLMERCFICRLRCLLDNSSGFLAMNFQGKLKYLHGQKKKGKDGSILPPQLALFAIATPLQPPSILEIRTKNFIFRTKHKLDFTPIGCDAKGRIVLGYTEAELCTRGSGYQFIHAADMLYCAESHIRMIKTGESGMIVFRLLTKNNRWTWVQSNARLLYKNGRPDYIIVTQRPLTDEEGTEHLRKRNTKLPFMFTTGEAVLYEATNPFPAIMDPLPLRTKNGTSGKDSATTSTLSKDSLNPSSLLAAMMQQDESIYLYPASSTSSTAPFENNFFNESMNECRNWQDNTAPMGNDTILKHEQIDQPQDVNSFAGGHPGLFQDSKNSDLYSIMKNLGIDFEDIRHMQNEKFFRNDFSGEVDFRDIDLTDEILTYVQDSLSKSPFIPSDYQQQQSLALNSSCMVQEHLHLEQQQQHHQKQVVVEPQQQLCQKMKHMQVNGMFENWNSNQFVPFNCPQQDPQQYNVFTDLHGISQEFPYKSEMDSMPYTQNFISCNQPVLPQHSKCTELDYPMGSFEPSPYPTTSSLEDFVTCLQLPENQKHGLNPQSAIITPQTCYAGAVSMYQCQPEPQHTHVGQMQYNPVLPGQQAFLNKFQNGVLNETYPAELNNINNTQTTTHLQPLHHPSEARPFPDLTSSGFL
T1 sequence (P27540 whole entry partner): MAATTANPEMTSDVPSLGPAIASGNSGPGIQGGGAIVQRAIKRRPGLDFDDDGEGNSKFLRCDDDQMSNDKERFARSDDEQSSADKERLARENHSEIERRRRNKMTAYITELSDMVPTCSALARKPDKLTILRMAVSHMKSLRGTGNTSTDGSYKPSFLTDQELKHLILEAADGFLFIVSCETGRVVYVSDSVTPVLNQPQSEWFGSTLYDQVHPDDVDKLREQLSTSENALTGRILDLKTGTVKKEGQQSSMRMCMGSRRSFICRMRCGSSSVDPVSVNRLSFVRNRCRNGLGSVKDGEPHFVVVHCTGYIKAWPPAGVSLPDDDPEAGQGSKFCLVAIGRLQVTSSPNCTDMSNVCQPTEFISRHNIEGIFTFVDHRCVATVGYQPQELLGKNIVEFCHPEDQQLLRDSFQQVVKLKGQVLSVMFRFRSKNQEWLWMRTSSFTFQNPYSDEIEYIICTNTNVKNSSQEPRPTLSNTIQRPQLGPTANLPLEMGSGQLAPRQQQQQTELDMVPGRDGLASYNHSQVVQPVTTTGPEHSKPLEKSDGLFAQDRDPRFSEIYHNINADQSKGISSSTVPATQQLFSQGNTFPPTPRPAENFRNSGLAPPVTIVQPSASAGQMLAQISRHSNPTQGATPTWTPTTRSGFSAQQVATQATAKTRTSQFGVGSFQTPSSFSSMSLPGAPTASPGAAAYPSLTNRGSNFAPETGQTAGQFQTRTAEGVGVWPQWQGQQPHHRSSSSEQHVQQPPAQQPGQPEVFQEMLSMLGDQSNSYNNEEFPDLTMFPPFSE

Take `NCCc1c[nH]c2ccccc12` [TA, tryptamine]: in data set [1], the “formation of AhR-ARNT heterodimer” value was “induce a formation of AhR-ARNT heterodimer”. Also, the “induction of CYP1A1 mRNA” value in data set [2] (LS180 cells, 24 h) is given as “strong induction”; in data set [3], “lack of induction”. Further, the “Gene Expression” value in data set [4] was “strong inducer”.
Regarding `OCCc1c[nH]c2ccccc12` [IET, indole-3-ethanol], in data set [4], the “Gene Expression” value is “inactive”.
For the compound `c1ccc2[nH]ccc2c1` [IND, indole], in data set [1], the “formation of AhR-ARNT heterodimer” value is listed as “induce a formation of AhR-ARNT heterodimer”. In data set [2], the “antagonistic effects on CYP1A1 mRNA” value is reported as “antagonistic effects were observed primarily” and the “induction of CYP1A1 mRNA” value is reported as “strong induction”. Moreover, the “induction of CYP1A1 mRNA” value in data set [3] was “induced”. In addition, the “Gene Expression” value in data set [4] is recorded as “strong inducer”.
Take `NC(=O)Cc1c[nH]c2ccccc12` [IAD, indole-3-acetamide]: in data set [1], the “formation of AhR-ARNT heterodimer” value is on record as “induce a formation of AhR-ARNT heterodimer”. The “induction of CYP1A1 mRNA” value in data set [2] (LS180 cells, 24 h) was “strong induction”; in data set [3], “induced”. Also, the “Gene Expression” value in data set [4] was “strong inducer”.
Turning to `O=C(O)C(O)Cc1c[nH]c2ccccc12` (stereo not drawn) [ILA, indole-3-lactate], the “antagonistic effects on CYP1A1 mRNA” value in data set [2] (setting [5]) is listed as “to a lesser extent”. In data set [4], the “Gene Expression” value was “inactive”.
For the compound `Cc1c[nH]c2ccccc12` [3MI, skatole], in data set [1], the “formation of AhR-ARNT heterodimer” value is “induce a formation of AhR-ARNT heterodimer”. In data set [2] (setting [5]), the “antagonistic effects on CYP1A1 mRNA” value is recorded as “antagonistic effects were observed primarily”. In addition, the “induction of CYP1A1 mRNA” value is “strong induction” in data set [2] (LS180 cells, 24 h) and “induced” in data set [3]. Moreover, the “Gene Expression” value in data set [4] is recorded as “strong inducer”.
The like results for `O=C(O)C(=O)Cc1c[nH]c2ccccc12` [IPY, indole-3-pyruvate] were, in that order, “induce a formation of AhR-ARNT heterodimer”, “antagonistic effects were observed primarily”, “strong induction”, “induced” and “strong inducer”.
As to `O=Cc1c[nH]c2ccccc12` [IA, indole-3-aldehyde], in data set [2] (setting [5]), the “antagonistic effects on CYP1A1 mRNA” value is on record as “antagonistic effects were observed primarily”. Besides, in data set [4], the “Gene Expression” value is “inactive”.
`O=C(O)/C=C/c1c[nH]c2ccccc12` [IAC, indole-3-acrylate]: the “formation of AhR-ARNT heterodimer” value in data set [1] is on record as “induce a formation of AhR-ARNT heterodimer”. Also, the “antagonistic effects on CYP1A1 mRNA” value in data set [2] (setting [5]) is reported as “to a lesser extent”. The “induction of CYP1A1 mRNA” value is “strong induction” in data set [2] (LS180 cells, 24 h) and “induced” in data set [3]. Further, the “Gene Expression” value in data set [4] was “strong inducer”.
